Entries after “also recorded” stand apart in the source; their conditions may differ. Where a SMILES comes first, the peptide text is derived from it.
Tests used:
[1] = system: MDCK cells; assay: EMT assay (HGF-induced EMT, inter-nuclear distance); settings: HGF 2.5 ng/ml
Description: MDCK cells (800 cells/well) were seeded onto 96-well plate and incubated in 37° C. and 5% CO2 to become 10% sub-confluence. Then EMT was triggered by adding culture medium with cell scattering factor HGF (R&D system, 2.5 ng/ml) and tested peptides were added (SEQ2˜SEQ31) to block EMT. To measure the inter-nuclear distance, random images were captured at ×50 magnification using an upright microscope. The inter-nuclear distance was measured from the center of one nucleus to that of a neighboring/adjacent nucleus. The distance between the two nuclei was measured by using ImageJ software.

[2] = system: human umbilical vein endothelial cells (HUVEC); assay: HUVEC tube formation assay (angiogenesis assay); type: cell-based; settings: for collapse of volume of tube structure compared to PBS-treated control: matrigel induced vasculature of HUVEC cells, PBS-dissolved peptides; for inhibition of angiogenesis / HUVEC tube structure: HUVEC on Matrigel, five-hour incubation
Description: Overnight starved human umbilical vein endothelial cells (HUVEC) were collected and adjusted to 1.5×10^4 cells/well (in a 96-well plate) with endothelial cell growth medium and then seeded cells on the matrigel-coated well. Different peptides and their modified forms by D-form non-nature amino acids and/or cyclization by adding N- and C-terminal Cystines; also SEQ132 is a reversal of the direction of the peptide backbone SEQ6 (retro modification): (SEQ17, SEQ78, SEQ97, MR9 DF, CMR9C, CMR9C DF, MR9D6 DF, CMR9D6C DF and SEQ132) or control PBS were added into well for five-hour incubation at 37° C. Each well was photographed at ×40 magnification through an upright microscope. Total tube lengths were quantified by using ImageJ software.

[3] = system: rat eyes choroidal neovascularization; assay: Rat laser-induced choroidal neovascularization model; type: in vivo; settings: injected into vitreous body, 14 days after laser; Eylea 200 μg/5 μl, SEQ97 500 μg/5 μl; n=10
Description: The animals were fully anesthetized with a mixture of ketamine hydrochloride/xylazine hydrochloride (7:1, v/v) by intramuscular injection into the thigh muscle at 1 mL/kg. Mydrin®-P ophthalmic solution (Santen Pharmaceutical Co., Ltd.) was instilled into the eyes to dilate the pupils. Laser (wavelength: 532 nm) was used to irradiate the right eye of each animal using a Slit Lamp SL-130 (Carl Zeiss Meditec AG) and a Multicolor Laser Photocoagulator MC-300 (NIDEK Co., Ltd.). Then the peptide dosing formulation was injected into the vitreous body of the right eye using a microsyringe (MS-N10, Ito Corporation) and a 33 G needle (Ito Corporation). Fourteen days after laser irradiation, a 4% FITC-dextran solution was administered into the tail vein in a volume of 1 mL/animal. Then the animals were euthanized by overdose of an anesthetic. The eyeballs were removed and fixed in 4% paraformaldehyde-phosphate buffer for 12-24 hours. Choroidal flat mounts were prepared under a stereoscopic microscope (EZ-4, Leica Microsystems). […]
Eyes of rats were irradiated by 532 nm wave length laser and intraveally treated with peptides (SEQ97), Eylea or PBS. […] After treatment (PBS, Eylea or SEQ97) for 14 days, the photographs of the choroidal neovascularization sites were taken and quantified with ImageJ software. […]

Molecule	inhibition of HGF (hepatocyte growth factor) induced EMT (epithelial-mesenchymal transition) [1]	inhibition of angiogenesis / HUVEC tube structure [2]	also measured
CC[C@H](C)[C@H](NC(=O)[C@@H](NC(=O)[C@H](CO)NC(=O)[C@H](Cc1ccccc1)NC(=O)[C@@H](N)CO)C(C)C)C(=O)N[C@@H](CC(=O)O)C(=O)N[C@@H](CCCCN)C(=O)N1CCC[C@H]1C(=O)N1CCC[C@H]1C(=O)NCC(=O)N[C@@H](CCSC)C(=O)N[C@@H](C)C(=O)N[C@@H](CCC(=O)O)C(=O)N[C@@H](CCCCN)C(=O)N[C@@H](Cc1c[nH]c2ccccc12)C(=O)O [SEQ5, SFSVIDKPPGMAEKW] (H-SFSVIDKPPGMAEKW-OH; N-terminus and C-terminus assumed)	inhibited	–	–
CC[C@H](C)[C@H](NC(=O)[C@H](CC(C)C)NC(=O)[C@H](Cc1ccccc1)NC(=O)[C@H](CCC(N)=O)NC(=O)[C@@H](NC(=O)[C@H](CCC(=O)O)NC(=O)[C@H](CO)NC(=O)[C@H](CCCNC(=N)N)NC(=O)CNC(=O)[C@H](CC(C)C)NC(=O)[C@H](CCCCN)NC(=O)[C@H](CCCCN)NC(=O)[C@@H](N)CCC(=O)O)[C@@H](C)CC)C(=O)N[C@@H](CO)C(=O)N[C@@H](CC(=O)O)C(=O)O [SEQ8, EKKLGRSEIQFLISD] (H-EKKLGRSEIQFLISD-OH; N-terminus and C-terminus assumed)	inhibited	–	–
CC[C@H](C)[C@H](NC(=O)[C@H](CCCCN)NC(=O)[C@H](Cc1c[nH]c2ccccc12)NC(=O)[C@H](CCCCN)NC(=O)[C@H](CCC(=O)O)NC(=O)[C@H](C)NC(=O)[C@@H](N)CCSC)C(=O)N[C@@H](C)C(=O)N[C@@H](CCCNC(=N)N)C(=O)N[C@@H](CCC(N)=O)C(=O)N[C@@H](CCC(=O)O)C(=O)O [SEQ15, MAEKWKIARQE] (H-MAEKWKIARQE-OH; N-terminus and C-terminus assumed)	excellent inhibiting abilities similar to SEQ6	–	–
CC[C@H](C)[C@H](NC(=O)[C@H](CCCCN)NC(=O)[C@H](Cc1c[nH]c2ccccc12)NC(=O)[C@H](CCCCN)NC(=O)[C@H](CCC(=O)O)NC(=O)[C@H](C)NC(=O)[C@@H](N)CCSC)C(=O)N[C@@H](C)C(=O)N[C@@H](CCCNC(=N)N)C(=O)O [SEQ17, MAEKWKIAR] (H-MAEKWKIAR-OH; N-terminus and C-terminus assumed)	advantageous effect in the inhibition of EMT; also recorded: excellent inhibiting abilities similar to SEQ6	–	–
CMAEKWKIARDDDDDDC [CMR9D6C DF]	–	–	collapse of volume of tube structure compared to PBS-treated control [2]: 95%
Eylea: Eylea, comparator treatment (200 μg/5 μl) in the rat choroidal neovascularization model [reference compound]	–	–	inhibition of rat eyes choroidal neovascularization [3]: significantly inhibit
MAEKWKIARDDDDDD [MR9D6 DF]	–	–	collapse of volume of tube structure compared to PBS-treated control [2]: 95%
MAEKWKIARDDDDDD [SEQ97]	–	inhibit angiogenesis	inhibition of rat eyes choroidal neovascularization [3]: significantly inhibit
RRRRRRRMAEKWKIAR [SEQ78]	–	inhibit angiogenesis	–
VSTSEQRAIKWKEAM [SEQ132]	–	strong efficacy to inhibit HUVEC tube structure	–
